In US20090068290A1, “BIFEPRUNOX DOSES FOR TREATING SCHIZOPHRENIA” (priority 2006, published 2009):

Columns and labels:
[1] = tested on: adult subjects with schizophrenia; test: CGI Severity of Illness score, Clinical Study One; assay type: in vivo, human; set-up: Change from Baseline in CGI Severity of Illness Score, Median: scale not given here; conditions: for Change from Baseline in CGI Severity of Illness Score, Mean (S.D.) / Change from Baseline in CGI Severity of Illness Score, Median / Change from Baseline in CGI Severity of Illness Score, Trt Effect (bifeprunox—placebo): ITT population
Protocol: There were five treatment groups in this study. […] Study medication was administered once daily. After Baseline measurements were performed, the titration phase was begun. Bifeprunox treated subjects were titrated up to 5 mg, 10 mg or 20 mg according to a standardized titration schedule (Day 1: 0.125 mg, Day 2: 0.25 mg, Day 3: 0.5 mg, Day 4: 1.0 mg, Day 5: 2.0 mg, Day 6: 5.0 mg, Day 7: 10.0 mg, Day 8: 20 mg). When the assigned dose was reached, subjects were maintained at that dose for the remainder of the six-week treatment period.
The change in the Positive and Negative Symptom Scale (PANSS) total score, from baseline to endpoint, was the primary outcome measure. Secondary efficacy measures included: PANSS positive, PANSS negative, PANSS general psychopathology (GPP) score, PANSS-derived Brief Psychiatric Rating Scale (BPRS) score, Clinical Global Impressions-Severity of Illness (CGI-S), CGI-Improvement (CGI-I) scores, and responder rates. Safety and tolerability evaluations included extrapyramidal symptoms (EPS), weight gain, lipid profile, and serum prolactin.

[2] = tested on: adult subjects with schizophrenia; test: PANSS total score, Clinical Study Three (6-week, olanzapine-referenced); assay type: in vivo, human; conditions: for Change from Baseline in PANSS Total Score, Mean (SD) / Change from Baseline in PANSS Total Score, Median / PANSS Total Score, Trt Effect (difference between bifeprunox and placebo): LOCF, ITT; for PANSS Total Score, Trt Effect (difference between bifeprunox and placebo): ANCOVA
Protocol: There were four treatment arms in this study, approximately 144 subjects per arm. […] After completing the Single-Blind Placebo Lead-in Period of at least three days, bifeprunox-treated subjects were titrated from 0.25 mg up to 20 mg/day or 30 mg/day according to a standardized titration scheme over a seven- or eight-day period, respectively. When the assigned dose was reached, subjects were maintained at that dose for the remainder of the six week treatment period. […] Subjects were hospitalized (if not already inpatients) after eligibility for study entry was verified, starting from the Screening Visit until at least 10 days after Baseline. Subjects could be hospitalized longer than 10 days if considered medically necessary by the Investigator. Rating scale assessments for efficacy and abnormal movement disorders were done weekly except for Week 5. Safety assessments were performed at Screening, during treatment and at the end of the study. Subject satisfaction with study medication was assessed at Week 6. Samples of whole blood were obtained at Weeks 2, 4, and 6 for determination of bifeprunox in plasma.
Test Product, Dose and Mode of Administration: Bifeprunox tablets, total daily dose 20 mg or 30 mg (one 20 mg tablet and one 10 mg tablet) administered orally using a once daily dosing regimen.

[3] = Bifeprunox 10 mg, Endpoint LOCF
[4] = Bifeprunox 20 mg, Endpoint LOCF
[5] = Bifeprunox 20 mg, Week 6/Endpoint
[6] = Bifeprunox 30 mg, Week 6/Endpoint

## O=c1[nH]c2cccc(N3CCN(Cc4cccc(-c5ccccc5)c4)CC3)c2o1 [Bifeprunox, 7-[4-([1,1′-biphenyl]-3-ylmethyl)-1-piperazinyl]-2(3H)-benzoxazolone]
[1]; Bifeprunox 5 mg, Endpoint LOCF
  CGI severity of illness score, treatment effect (bifeprunox—placebo): −0.31
  Change from Baseline in CGI Severity of Illness Score, Mean (S.D.): −0.58 (1.10)
  Change from Baseline in CGI Severity of Illness Score, Median: 0.0
  Change from Baseline in CGI Severity of Illness Score, Trt Effect (bifeprunox—placebo): −0.31
[1]; Bifeprunox 5 mg, Week 1, LOCF
  Change from Baseline in CGI Severity of Illness Score, Mean (S.D.): −0.18 (0.68)
  Change from Baseline in CGI Severity of Illness Score, Median: 0.0
[1]; Bifeprunox 5 mg, Week 2, LOCF
  Change from Baseline in CGI Severity of Illness Score, Mean (S.D.): −0.37 (0.83)
  Change from Baseline in CGI Severity of Illness Score, Median: 0.0
[1]; Bifeprunox 5 mg, Week 3, LOCF
  Change from Baseline in CGI Severity of Illness Score, Mean (S.D.): −0.47 (0.90)
  Change from Baseline in CGI Severity of Illness Score, Median: 0.0
[1]; Bifeprunox 5 mg, Week 4, LOCF
  Change from Baseline in CGI Severity of Illness Score, Mean (S.D.): −0.52 (1.01)
  Change from Baseline in CGI Severity of Illness Score, Median: 0.0
[1]; [3]
  CGI severity of illness score, treatment effect (bifeprunox—placebo): 0.12
  Change from Baseline in CGI Severity of Illness Score, Mean (S.D.): −0.18 (1.04)
  Change from Baseline in CGI Severity of Illness Score, Median: 0.0
  Change from Baseline in CGI Severity of Illness Score, Trt Effect (bifeprunox—placebo): 0.12
[1]; Bifeprunox 10 mg, Week 1, LOCF
  Change from Baseline in CGI Severity of Illness Score, Mean (S.D.): 0.13 (0.75)
  Change from Baseline in CGI Severity of Illness Score, Median: 0.0
[1]; Bifeprunox 10 mg, Week 2, LOCF
  Change from Baseline in CGI Severity of Illness Score, Mean (S.D.): −2.3 (0.92)
  Change from Baseline in CGI Severity of Illness Score, Median: 0.0
[1]; Bifeprunox 10 mg, Week 3, LOCF
  Change from Baseline in CGI Severity of Illness Score, Mean (S.D.): −0.22 (1.01)
  Change from Baseline in CGI Severity of Illness Score, Median: 0.0
[1]; Bifeprunox 10 mg, Week 4, LOCF
  Change from Baseline in CGI Severity of Illness Score, Mean (S.D.): −0.16 (0.99)
  Change from Baseline in CGI Severity of Illness Score, Median: 0.0
[1]; [4]
  Change from Baseline in CGI Severity of Illness Score, Mean (S.D.): −0.52 (0.96)
  Change from Baseline in CGI Severity of Illness Score, Median: 0.0
  Change from Baseline in CGI Severity of Illness Score, Trt Effect (bifeprunox—placebo): −0.19
[1]; Bifeprunox 20 mg, Week 1, LOCF
  Change from Baseline in CGI Severity of Illness Score, Mean (S.D.): −0.31 (0.74)
  Change from Baseline in CGI Severity of Illness Score, Median: 0.0
[1]; Bifeprunox 20 mg, Week 2, LOCF
  Change from Baseline in CGI Severity of Illness Score, Mean (S.D.): −0.50 (0.85)
  Change from Baseline in CGI Severity of Illness Score, Median: 0.0
[1]; Bifeprunox 20 mg, Week 3, LOCF
  Change from Baseline in CGI Severity of Illness Score, Mean (S.D.): −0.57 (0.90)
  Change from Baseline in CGI Severity of Illness Score, Median: 0.0
[1]; Bifeprunox 20 mg, Week 4, LOCF
  Change from Baseline in CGI Severity of Illness Score, Mean (S.D.): −0.57 (0.89)
  Change from Baseline in CGI Severity of Illness Score, Median: 0.0
[1]; bifeprunox 20 mg, Endpoint LOCF
  CGI severity of illness score, treatment effect (bifeprunox—placebo): −0.19
[2]; Bifeprunox 20 mg, Week 1
  Change from Baseline in PANSS Total Score, Mean (SD): −5.6 (11.7)
  Change from Baseline in PANSS Total Score, Median: −5
[2]; Bifeprunox 20 mg, Week 2
  Change from Baseline in PANSS Total Score, Mean (SD): −10.2 (14.8)
  Change from Baseline in PANSS Total Score, Median: −10
[2]; Bifeprunox 20 mg, Week 3
  Change from Baseline in PANSS Total Score, Mean (SD): −12.6 (16.9)
  Change from Baseline in PANSS Total Score, Median: −13
[2]; Bifeprunox 20 mg, Week 4
  Change from Baseline in PANSS Total Score, Mean (SD): −13.3 (18.7)
  Change from Baseline in PANSS Total Score, Median: −13
[2]; [5]
  Change from Baseline in PANSS Total Score, Mean (SD): −13.8 (19.9)
  Change from Baseline in PANSS Total Score, Median: −14
  PANSS Total Score, Trt Effect (difference between bifeprunox and placebo): −3.5
[2]; Bifeprunox 30 mg, Week 1
  Change from Baseline in PANSS Total Score, Median: −6
[2]; Bifeprunox 30 mg, Week 2
  Change from Baseline in PANSS Total Score, Mean (SD): −8.5 (15.6)
  Change from Baseline in PANSS Total Score, Median: −9
[2]; Bifeprunox 30 mg, Week 3
  Change from Baseline in PANSS Total Score, Mean (SD): −11.1 (18.0)
  Change from Baseline in PANSS Total Score, Median: −11
[2]; Bifeprunox 30 mg, Week 4
  Change from Baseline in PANSS Total Score, Mean (SD): −12.0 (18.6)
  Change from Baseline in PANSS Total Score, Median: −13
[2]; [6]
  Change from Baseline in PANSS Total Score, Mean (SD): −13.1 (20.2)
  Change from Baseline in PANSS Total Score, Median: −13
  PANSS Total Score, Trt Effect (difference between bifeprunox and placebo): −2.2
[2]; bifeprunox 20 mg and 30 mg, Endpoint
  efficacy compared to placebo, primary and key secondary efficacy parameters: did not demonstrate efficacy as compared to the placebo group
